Experimental data taken from PubChem BioAssay (NCI).
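96-well plates; 48 h exposure; 5 concentrations. Endpoints by linear interpolation between flanking doses. Not reached: highest tested concentration assigned. GI50: concentration for 50% inhibition of growth. TGI denotes the concentration required for complete inhibition of growth.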

Key:
Test in all cases: NCI tumour cell line growth inhibition, 48 h
[1] = tested on: 786-0 renal
[2] = tested on: LOX IMVI melanoma
[3] = tested on: SK-OV-3 ovarian
[4] = tested on: COLO 205 colon
[5] = tested on: UO-31 renal
[6] = tested on: HT29 colon
[7] = tested on: SK-MEL-2 melanoma
[8] = tested on: IGROV1 ovarian
[9] = tested on: KM12 colon
[10] = tested on: M14 melanoma
[11] = tested on: NCI-H460 lung
[12] = tested on: U251 CNS
[13] = tested on: UACC-62 melanoma
[14] = tested on: PC-3 prostate
[15] = tested on: RXF 393 renal
[16] = tested on: SW-620 colon
[17] = tested on: BT-549 breast
[18] = tested on: MDA-MB-435
[19] = tested on: NCI/ADR-RES ovarian
[20] = tested on: HCC-2998 colon
[21] = tested on: A498 renal
[22] = tested on: SNB-19 CNS
[23] = tested on: NCI-H23 lung
[24] = tested on: HL-60(TB) leukemia
[25] = tested on: OVCAR-8 ovarian
[26] = tested on: SF-539 CNS
[27] = tested on: SN12C renal
[28] = tested on: NCI-H522 lung
[29] = tested on: SK-MEL-28 melanoma
[30] = tested on: OVCAR-5 ovarian
[31] = tested on: HCT-116 colon
[32] = tested on: HS 578T breast
[33] = tested on: SK-MEL-5 melanoma
[34] = tested on: A549 NSCLC
[35] = tested on: T-47D breast
[36] = tested on: MDA-MB-231 breast
[37] = tested on: HCT-15 colon
[38] = tested on: MCF7 breast
[39] = tested on: EKVX NSCLC
[40] = tested on: UACC-257 melanoma
[41] = tested on: MOLT-4 leukemia
[42] = tested on: SF-295 CNS
[43] = tested on: MALME-3M melanoma
[44] = tested on: TK-10 renal
[45] = tested on: OVCAR-3 ovarian
[46] = tested on: HOP-92 NSCLC
[47] = tested on: SF-268 CNS
[48] = tested on: RPMI-8226 leukemia
[49] = tested on: DU-145 prostate
[50] = tested on: K-562 leukemia
[51] = tested on: CAKI-1 renal
[52] = tested on: SNB-75 CNS
[53] = tested on: OVCAR-4 ovarian
[54] = tested on: HOP-62 NSCLC
[55] = tested on: ACHN renal
[56] = tested on: CCRF-CEM leukemia
[57] = tested on: NCI-H226 lung

In the case of `CN1CCCN(C(c2ccccc2)c2ccc(Br)cc2)CC1` (stereo not drawn), the GI50 [1] is reported as 3.94 µM, the TGI [1] is reported as 14 µM and the GI50 [2] is reported as 2.85 µM. The TGI [2] was 10.1 µM, the GI50 [3] was 3.66 µM and the TGI [3] was 14.5 µM. It also gave a GI50 [4] of 3.93 µM, a TGI [4] of 16.2 µM and a GI50 [5] of 2.65 µM. For the same molecule, the TGI [5] was 16 µM, the GI50 [6] was 2.92 µM and the TGI [6] was 13.1 µM. It also gave a GI50 [7] of 3.66 µM, a TGI [7] of 11.3 µM and a GI50 [8] of 8.83 µM. It also gave a TGI [8] of 22.1 µM, a GI50 [9] of 2.73 µM and a TGI [9] of 7.09 µM. For the same molecule, the GI50 [10] was 1.61 µM, the TGI [10] was 2.99 µM and the GI50 [11] was 6.55 µM. For the same molecule, the TGI [11] was 19 µM, the GI50 [12] was 3 µM and the TGI [12] was 10.3 µM. It also gave a GI50 [13] of 2.03 µM, a TGI [13] of 4.35 µM and a GI50 [14] of 2.87 µM. For the same molecule, the TGI [14] was 13.5 µM, the GI50 [15] was 2.65 µM and the TGI [15] was 8.67 µM. For the same molecule, the GI50 [16] was 2.9 µM, the TGI [16] was 10.6 µM and the GI50 [17] was 4.89 µM. The TGI [17] was 19.4 µM, the GI50 [18] was 1.87 µM and the TGI [18] was 3.83 µM. The GI50 [19] was 3.09 µM, the GI50 [20] was 4.55 µM and the TGI [20] was 16 µM. The GI50 [21] was 5.86 µM, the TGI [21] was 17.9 µM and the GI50 [22] was 14.8 µM. It also gave a TGI [22] of 28 µM, a GI50 [23] of 10.3 µM and a TGI [23] of 22.1 µM. It also gave a GI50 [24] of 3.52 µM, a TGI [24] of 34.1 µM and a GI50 [25] of 6.5 µM. For the same molecule, the TGI [25] was 21 µM, the GI50 [26] was 3.09 µM and the TGI [26] was 11.1 µM. The GI50 [27] was 3.51 µM, the TGI [27] was 12.5 µM and the GI50 [28] was 3.62 µM. It also gave a TGI [28] of 13.9 µM, a GI50 [29] of 2.43 µM and a TGI [29] of 5.97 µM. The GI50 [30] was 10.7 µM, the TGI [30] was 22.5 µM and the GI50 [31] was 1.84 µM. It also gave a TGI [31] of 4.23 µM, a GI50 [32] of 2.37 µM and a TGI [32] of 6.35 µM. It also gave a GI50 [33] of 1.85 µM, a TGI [33] of 3.74 µM and a GI50 [34] of 10.9 µM. For the same molecule, the TGI [34] was 25.6 µM, the GI50 [35] was 3.18 µM and the TGI [35] was 19.2 µM. For the same molecule, the GI50 [36] was 2.41 µM, the TGI [36] was 7.81 µM and the GI50 [37] was 3.49 µM. The TGI [37] was 14 µM, the GI50 [38] was 2.63 µM and the TGI [38] was 10 µM. For the same molecule, the GI50 [39] was 4.94 µM, the TGI [39] was 19.6 µM and the GI50 [40] was 2.41 µM. For the same molecule, the TGI [40] was 5.41 µM, the GI50 [41] was 3.92 µM and the TGI [41] was 58.2 µM. The GI50 [42] was 3.52 µM, the TGI [42] was 14.5 µM and the GI50 [43] was 2.57 µM. For the same molecule, the TGI [43] was 11.8 µM, the GI50 [44] was 10.4 µM and the TGI [44] was 22.7 µM. For the same molecule, the GI50 [45] was 2.83 µM, the TGI [45] was 10.2 µM and the GI50 [46] was 0.635 µM. It also gave a TGI [46] of 7.73 µM, a GI50 [47] of 2.76 µM and a TGI [47] of 8.97 µM. The GI50 [48] was 9.04 µM, the TGI [48] was 36.2 µM and the GI50 [49] was 10.5 µM. The TGI [49] was 22.3 µM, the GI50 [50] was 5.04 µM and the TGI [50] was > 100 µM. For the same molecule, the GI50 [51] was 3.24 µM, the TGI [51] was 13.4 µM and the GI50 [52] was 3.1 µM. It also gave a TGI [52] of 17.9 µM, a GI50 [53] of 7.63 µM and a TGI [53] of 20.5 µM. For the same molecule, the GI50 [54] was 6.52 µM, the TGI [54] was 19.3 µM and the GI50 [55] was 3.62 µM. It also gave a TGI [55] of 14.1 µM, a GI50 [56] of 4.14 µM and a TGI [56] of 18.9 µM. It also gave a GI50 [57] of 7.23 µM and a TGI [57] of 20.8 µM.
